In US20180002319A1, “MACROCYCLIC PICOLINAMIDE COMPOUNDS WITH FUNGICIDAL ACTIVITY” (DOW AGROSCIENCES LLC, priority 2014, published 2018):

Each compound was assayed on Alternaria solani (assay: Tomato Early Blight (ALTESO) fungicidal activity). Details: 24 h, 1DP (1 Day Protectant), read-out: ALTESO Disease Control.
Format: in vivo
Experimental: Technical grades of materials were dissolved in acetone, which were then mixed with nine volumes of H2O containing 110 ppm Triton X-100. The fungicide solutions were applied onto wheat seedlings using an automated booth sprayer to run-off. All sprayed plants were allowed to air dry prior to further handling. All fungicides were evaluated using the aforementioned method for their activity vs. all target diseases, unless stated otherwise. Wheat leaf blotch and brown rust activity were also evaluated using track spray applications, in which case the fungicides were formulated as EC formulations, containing 0.1% Trycol 5941 in the spray solutions. Wheat plants (variety Yuma) were grown from seed in a greenhouse in 50% mineral soil/50% soil-less Metro mix until the first leaf was fully emerged, with 7-10 seedlings per pot. These plants were inoculated with an aqueous spore suspension of Zymoseptoria tritici either prior to or after fungicide treatments. After inoculation the plants were kept in 100% relative humidity (one day in a dark dew chamber followed by two to three days in a lighted dew chamber at 20° C.) to permit spores to germinate and infect the leaf. The plants were then transferred to a greenhouse set at 20° C. for disease to develop. When disease symptoms were fully expressed on the 1st leaves of untreated plants, infection levels were assessed on a scale of 0 to 100 percent disease severity. Percent disease control was calculated using the ratio of disease severity on treated plants relative to untreated plants. Example M: Evaluation of Fungicidal Activity: Tomato Early Blight (Alternaria solani; Bayer Code […]) Tomato plants (variety Outdoor Girl) were propagated in soil-less Metro mix, with each pot having one plant, and used when 12 to 14 days old. Test plants were inoculated with an aqueous spore suspension of Alternaria solani 24 hr after fungicide treatments. After inoculation the plants were kept in 100% relative humidity (one day in a dark dew chamber followed by two to three days in a lighted dew chamber at 20° C.) to permit spores to germinate and infect the leaf. The plants were then transferred to a growth room at 22° C. for disease to develop. Fungicide formulation, application and disease assessment on the sprayed leaves followed the procedures as described in the Example A.
For `CCCCO[C@H]1CCOC[C@H](NC(=O)c2nccc(OC)c2OCOC(C)=O)C(=O)O[C@@H](C)[C@@H]1OCc1ccccc1` [Compound 2], the pest or weed control at 100 ppm was < 80%. In the case of `CCCCO[C@H]1CCOC[C@H](NC(=O)c2nccc(OC)c2OCOC(C)=O)C(=O)O[C@@H](C)[C@@H]1OC(=O)C(C)C` [Compound 3], the pest or weed control at 100 ppm is reported as > 80%. For `CCCCO[C@H]1CCOC[C@H](NC(=O)c2nccc(OC)c2OCOC(C)=O)C(=O)O[C@@H](C)[C@@H]1OC(=O)c1ccccc1` [Compound 4], the pest or weed control at 100 ppm was > 80%. With `CCCCO[C@H]1CCOC[C@H](NC(=O)c2nccc(OC)c2OCOC(C)=O)C(=O)O[C@@H](C)[C@@H]1OC(=O)C1CC1` [Compound 5] the pest or weed control at 100 ppm was < 80%. In the case of `COc1ccnc(C(=O)N[C@H]2COCC[C@@H](OCC(C)C)[C@@H](OCC(C)C)[C@H](C)OC2=O)c1OCOC(C)=O` [Compound 6], the pest or weed control at 100 ppm is reported as < 80%.

What follows are compounds tested on Leptosphaeria nodorum (assay: Wheat Glume Blotch (LEPTNO) fungicidal activity). Details: Parastagonospora nodorum, 24 h, 1DP (1 Day Protectant), read-out: LEPTNO Disease Control.
Format: in vivo
Experimental: Technical grades of materials were dissolved in acetone, which were then mixed with nine volumes of H2O containing 110 ppm Triton X-100. The fungicide solutions were applied onto wheat seedlings using an automated booth sprayer to run-off. All sprayed plants were allowed to air dry prior to further handling. All fungicides were evaluated using the aforementioned method for their activity vs. all target diseases, unless stated otherwise. Wheat leaf blotch and brown rust activity were also evaluated using track spray applications, in which case the fungicides were formulated as EC formulations, containing 0.1% Trycol 5941 in the spray solutions. Wheat plants (variety Yuma) were grown from seed in a greenhouse in 50% mineral soil/50% soil-less Metro mix until the first leaf was fully emerged, with 7-10 seedlings per pot. These plants were inoculated with an aqueous spore suspension of Zymoseptoria tritici either prior to or after fungicide treatments. After inoculation the plants were kept in 100% relative humidity (one day in a dark dew chamber followed by two to three days in a lighted dew chamber at 20° C.) to permit spores to germinate and infect the leaf. The plants were then transferred to a greenhouse set at 20° C. for disease to develop. When disease symptoms were fully expressed on the 1st leaves of untreated plants, infection levels were assessed on a scale of 0 to 100 percent disease severity. Percent disease control was calculated using the ratio of disease severity on treated plants relative to untreated plants. Example C: Evaluation of Fungicidal Activity: Wheat Glume Blotch (Leptosphaeria nodorum; Bayer Code […]) Wheat plants (variety Yuma) were grown from seed in a greenhouse in 50% mineral soil/50% soil-less Metro mix until the first leaf was fully emerged, with 7-10 seedlings per pot. These plants were inoculated with an aqueous spore suspension of Leptosphaeria nodorum 24 hr after fungicide treatments. After inoculation the plants were kept in 100% relative humidity (one day in a dark dew chamber followed by two days in a lighted dew chamber at 20° C.) to permit spores to germinate and infect the leaf. The plants were then transferred to a greenhouse set at 20° C. for disease to develop. Fungicide formulation, application and disease assessment followed the procedures as described in the Example A.
`CCCCO[C@H]1CCOC[C@H](NC(=O)c2nccc(OC)c2OCOC(C)=O)C(=O)O[C@@H](C)[C@@H]1OCc1ccccc1` [Compound 2] was tested, and the pest or weed control at 100 ppm was > 80%. In the case of `CCCCO[C@H]1CCOC[C@H](NC(=O)c2nccc(OC)c2OCOC(C)=O)C(=O)O[C@@H](C)[C@@H]1OC(=O)C(C)C` [Compound 3], the pest or weed control at 100 ppm is reported as > 80%. In the case of `CCCCO[C@H]1CCOC[C@H](NC(=O)c2nccc(OC)c2OCOC(C)=O)C(=O)O[C@@H](C)[C@@H]1OC(=O)c1ccccc1` [Compound 4], the pest or weed control at 100 ppm is reported as > 80%. In the case of `CCCCO[C@H]1CCOC[C@H](NC(=O)c2nccc(OC)c2OCOC(C)=O)C(=O)O[C@@H](C)[C@@H]1OC(=O)C1CC1` [Compound 5], the pest or weed control at 100 ppm is reported as > 80%. With `COc1ccnc(C(=O)N[C@H]2COCC[C@@H](OCC(C)C)[C@@H](OCC(C)C)[C@H](C)OC2=O)c1OCOC(C)=O` [Compound 6] the pest or weed control at 100 ppm was > 80%.

The compounds below were run on Puccinia triticina (assay: Wheat Brown Rust (PUCCRT) fungicidal activity). Details: 24 h, High Volume application, 100 ppm, 1 day protectant, read-out: PUCCRT disease control, 1DP (1 Day Protectant).
Format: in vivo
Outline: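 Disease severity (0–100%) on first leaves compared with untreated plants gives percent control. Plants (wheat var. Yuma) received spore inoculum before or after run-off spraying with compound in acetone/Triton X-100 water, held overnight at 22° C, 100% RH, then in a 24° C greenhouse.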
With `CCCCO[C@H]1CCOC[C@H](NC(=O)c2nccc(OC)c2OCOC(C)=O)C(=O)O[C@@H](C)[C@@H]1OCc1ccccc1` [Compound 2] the pest or weed control at 100 ppm was > 80%. `CCCCO[C@H]1CCOC[C@H](NC(=O)c2nccc(OC)c2OCOC(C)=O)C(=O)O[C@@H](C)[C@@H]1OC(=O)C(C)C` [Compound 3] was tested, and the pest or weed control at 100 ppm was > 80%. In the case of `CCCCO[C@H]1CCOC[C@H](NC(=O)c2nccc(OC)c2OCOC(C)=O)C(=O)O[C@@H](C)[C@@H]1OC(=O)c1ccccc1` [Compound 4], the pest or weed control at 100 ppm is reported as > 80%. `CCCCO[C@H]1CCOC[C@H](NC(=O)c2nccc(OC)c2OCOC(C)=O)C(=O)O[C@@H](C)[C@@H]1OC(=O)C1CC1` [Compound 5] was tested, and the pest or weed control at 100 ppm was > 80%. `COc1ccnc(C(=O)N[C@H]2COCC[C@@H](OCC(C)C)[C@@H](OCC(C)C)[C@H](C)OC2=O)c1OCOC(C)=O` [Compound 6] was tested, and the pest or weed control at 100 ppm was > 80%.

Same assay, conditions: 24 h, Low Volume application, 121.5 g/H, 1 day protectant, read-out: PUCCRT disease control, 1DP (1 Day Protectant)
With `CCCCO[C@H]1CCOC[C@H](NC(=O)c2nccc(OC)c2OCOC(C)=O)C(=O)O[C@@H](C)[C@@H]1OCc1ccccc1` [Compound 2] the pest or weed control at 121.5 g/ha was > 80%. For `CCCCO[C@H]1CCOC[C@H](NC(=O)c2nccc(OC)c2OCOC(C)=O)C(=O)O[C@@H](C)[C@@H]1OC(=O)c1ccccc1` [Compound 4], the pest or weed control at 121.5 g/ha was > 80%.

Same assay, conditions: 72 h, High Volume application, 100 ppm, 3 day curative, read-out: PUCCRT disease control, 3DC (3 Day Curative)
With `CCCCO[C@H]1CCOC[C@H](NC(=O)c2nccc(OC)c2OCOC(C)=O)C(=O)O[C@@H](C)[C@@H]1OCc1ccccc1` [Compound 2] the pest or weed control at 100 ppm was > 80%. For `CCCCO[C@H]1CCOC[C@H](NC(=O)c2nccc(OC)c2OCOC(C)=O)C(=O)O[C@@H](C)[C@@H]1OC(=O)C(C)C` [Compound 3], the pest or weed control at 100 ppm was > 80%. `CCCCO[C@H]1CCOC[C@H](NC(=O)c2nccc(OC)c2OCOC(C)=O)C(=O)O[C@@H](C)[C@@H]1OC(=O)c1ccccc1` [Compound 4] was tested, and the pest or weed control at 100 ppm was > 80%. `CCCCO[C@H]1CCOC[C@H](NC(=O)c2nccc(OC)c2OCOC(C)=O)C(=O)O[C@@H](C)[C@@H]1OC(=O)C1CC1` [Compound 5] was tested, and the pest or weed control at 100 ppm was > 80%. With `COc1ccnc(C(=O)N[C@H]2COCC[C@@H](OCC(C)C)[C@@H](OCC(C)C)[C@H](C)OC2=O)c1OCOC(C)=O` [Compound 6] the pest or weed control at 100 ppm was > 80%.

Same assay, conditions: 72 h, Low Volume application, 121.5 g/H, 3 day curative, read-out: PUCCRT disease control, 3DC (3 Day Curative)
With `CCCCO[C@H]1CCOC[C@H](NC(=O)c2nccc(OC)c2OCOC(C)=O)C(=O)O[C@@H](C)[C@@H]1OCc1ccccc1` [Compound 2] the pest or weed control at 121.5 g/ha was > 80%. `CCCCO[C@H]1CCOC[C@H](NC(=O)c2nccc(OC)c2OCOC(C)=O)C(=O)O[C@@H](C)[C@@H]1OC(=O)c1ccccc1` [Compound 4] was tested, and the pest or weed control at 121.5 g/ha was > 80%.

The compounds below were run on Magnaporthe grisea; Anamorph: Pyricularia oryzae (assay: whole plant or invertebrate). Details: 24 h, read-out: PYRIOR Disease Control.
Format: in vivo
`CCCCO[C@H]1CCOC[C@H](NC(=O)c2nccc(OC)c2OCOC(C)=O)C(=O)O[C@@H](C)[C@@H]1OCc1ccccc1` [Compound 2] was tested, and the pest or weed control at 100 ppm was > 80%. For `CCCCO[C@H]1CCOC[C@H](NC(=O)c2nccc(OC)c2OCOC(C)=O)C(=O)O[C@@H](C)[C@@H]1OC(=O)C(C)C` [Compound 3], the pest or weed control at 100 ppm was > 80%. With `CCCCO[C@H]1CCOC[C@H](NC(=O)c2nccc(OC)c2OCOC(C)=O)C(=O)O[C@@H](C)[C@@H]1OC(=O)c1ccccc1` [Compound 4] the pest or weed control at 100 ppm was > 80%. For `CCCCO[C@H]1CCOC[C@H](NC(=O)c2nccc(OC)c2OCOC(C)=O)C(=O)O[C@@H](C)[C@@H]1OC(=O)C1CC1` [Compound 5], the pest or weed control at 100 ppm was < 80%. `COc1ccnc(C(=O)N[C@H]2COCC[C@@H](OCC(C)C)[C@@H](OCC(C)C)[C@H](C)OC2=O)c1OCOC(C)=O` [Compound 6] was tested, and the pest or weed control at 100 ppm was > 80%.
